Assay results reported in US9775844B2, “Heterocyclic compounds and uses thereof” (Infinity Pharmaceuticals, Inc., priority 2014, dated 2017).
pIC50: −log10 of the molar value.

What was measured:
[1] = system: TMD8 cell line; assay: Combination isobologram in TMD8 cell line; type: cell-based; conditions: combination of Compound AA and Compound BB
[2] = system: Myeloid Derived Suppressor Cell; assay: Myeloid Derived Suppressor Cell differentiation assay; type: cell-based; conditions: MDSC differentiation assay
[3] = system: CT26 colon cancer; assay: CT26 colon cancer model; type: in vivo, mouse
[4] = system: 4T1 breast cancer; assay: Orthotopic 4T1 breast cancer model; type: in vivo; conditions: Compound BB and/or PDL-1 inhibition
[5] = system: tumor; assay: Tumor growth, Compound BB alone and co-administered with 5-FU (FIG. 35); type: in vivo
[6] = Oral exposure in the rat; type: in vivo
[7] = system: spleen T cell proliferation; assay: Ex vivo T-cell proliferation assay with tumor-derived cells from treated mice; type: in vivo
[8] = system: phospho-AKT in monocytes; assay: Ex vivo whole blood stimulation of phospho-AKT in monocytes of LLC-bearing mice; conditions: LLC-bearing mice treated with compound
[9] = system: RANKL driven differentiation of osteoclasts from bone marrow macrophages; assay: Osteoclast differentiation assay (TRAP staining); type: cell-based, mouse; conditions: FIG. 17
Protocol: Bone Marrow Derived Macrophages as Osteoclast Progenitors: Long bones from young C57B6 mice were harvested and bone marrow was extruded by gentle lavage of the bone marrow cavities with a 28 gage needle. The cells were screened, and red blood cells were removed using red blood cell lysis buffer (Sigma). Bone marrow cells were differentiated to macrophages using 20 ng/ml mouse MCSF (RnD systems) for 3 days (RPMI and 20% FCS). The cell were washed with PBS, and lifted with Accutase for 10 minutes.
Osteoclast Differentiation Assay: The bone marrow macrophage cells were plated at 150,000 cells per well in a 96 well plate in a MEM 10% FCS. […] Then 25 ng/ml mouse MCSF with or without mouse RANKL (100 ng/ml, RnD systems) was added for 6 days. Media changes (including drugs) were done at day 3 and day 5. The cells were then fixed and stained with the tartrate resistant acid phosphatase (TRAP) assay kit from Sigma according to the manufactures instructions. TRAP positive cells (osteoclasts and cells undergoing an osteoclastic differentiation) in a transect of the triplicate wells (at 20× […]) were manually counted by going through the widest part of each well.

[10] = Mouse pharmacokinetics, oral single and repeat dose; type: in vivo; conditions: female mice, 2, 7.5, 15 mg/kg PO
Protocol: Animals were weighed daily prior to dosing. […] On subsequent dosing days, the animals' condition was noted prior to dosing; the animals were observed within 4 hours of dosing, and at the end of the day.
Samples were collected at pre-dose 0.25, 0.5, 1, 2, 4, 6 and 24 h following the first dose on day 1 and pre-dose (trough), 0.25, 0.5, 1, 2, 4, 6 and 24 h following the final dose on day 3 Animals received a single oral dose daily for 3 consecutive days. Blood was collected by retro-orbital bleeding for all time points on day 1. All other blood sampling was collected by a cardiac puncture. Blood was collected into K2EDTA tubes and placed on wet ice. Within 15 min of collection, the sample was centrifuged at 10,000 rpm at 4° C. for 10 min in a bench top centrifuge and the plasma transferred to a new microcentrifuge tube.
A similar study was carried out using Compound 88. […] Below is a table that details the results for Compound 88: […]

[11] = system: monocytic iMCs in CT26 subcutaneous tumors; assay: Flow cytometry of tumor-associated myeloid cells, CT26 subcutaneous tumors; type: in vivo, mouse; conditions: FIG. 38B
Protocol: Flow cytometry was performed to obtain a more extensive cellular subset analysis. In particular, the study examined T cell vs. Myeloid cells, Myeloid cell subsets, Regulatory vs. effector T cells, and Tumor markers vs. WBC (e.g., PD-L1 expression on tumor).
Different populations of tumor-associated myeloid cells can be identified by flow cytometry, e.g., monocytic immature myeloid cells (iMC),Granulocytic iMCs/Neutrophils, Tumor Associated Macrophages (TAMs), and Granulocytic MDSCs. The different populations, and panels for detecting MDSCs, are described in Cancer Discovery 2011; 1:54-67. Tumors may vary in their myeloid cell composition.

[12] = system: KPC Pancreatic Cancer cells; assay: RNA expression profiling (TLDA) of KPC pancreatic cancer tumors; type: in vivo, mouse
Protocol: RNA expression profiling was performed for immuno-phenotyping with a Taqman low density array (TLDA).
For mouse tumors, snap frozen samples were powdered with a Genogrinder at liquid nitrogen temperatures and RNA was isolated with Trizol. Next, the sample was cleaned-up using Qiashredder, and then using a RNeasy kit.
CT values were used for analysis. For each sample Si and each gene, the following values were calculated: dCT(Si,gene)=CT(Si,gene)−CT(Si,ACTB) ddCT(Si,gene)=dCT(Si,gene)−median(dCT(vehicle treated samples, gene)) RQ(Si, gene)=2^(−ddCT(Si,gene))
This produced a matrix of RQ values: 48 genes (rows)×39 samples (cols).
The analysis used R package Non-negative Matrix Factorization (NMF) with rank=3 and the “lee” algorithm.

[13] = Stability in simulated gastric fluid; type: physicochemical; conditions: 38°
Text: The phyiscochemical properties of Compound BB are drug-like, and suitable for use of the compound as a drug.

[14] = molecular target: P-GP (P-glycoprotein 1) (Homo sapiens (Human), UniProt P08183); assay: P-glycoprotein inhibition; type: in vitro ADME
P-GP (P-glycoprotein 1), sequence (P08183 whole entry, species assumed): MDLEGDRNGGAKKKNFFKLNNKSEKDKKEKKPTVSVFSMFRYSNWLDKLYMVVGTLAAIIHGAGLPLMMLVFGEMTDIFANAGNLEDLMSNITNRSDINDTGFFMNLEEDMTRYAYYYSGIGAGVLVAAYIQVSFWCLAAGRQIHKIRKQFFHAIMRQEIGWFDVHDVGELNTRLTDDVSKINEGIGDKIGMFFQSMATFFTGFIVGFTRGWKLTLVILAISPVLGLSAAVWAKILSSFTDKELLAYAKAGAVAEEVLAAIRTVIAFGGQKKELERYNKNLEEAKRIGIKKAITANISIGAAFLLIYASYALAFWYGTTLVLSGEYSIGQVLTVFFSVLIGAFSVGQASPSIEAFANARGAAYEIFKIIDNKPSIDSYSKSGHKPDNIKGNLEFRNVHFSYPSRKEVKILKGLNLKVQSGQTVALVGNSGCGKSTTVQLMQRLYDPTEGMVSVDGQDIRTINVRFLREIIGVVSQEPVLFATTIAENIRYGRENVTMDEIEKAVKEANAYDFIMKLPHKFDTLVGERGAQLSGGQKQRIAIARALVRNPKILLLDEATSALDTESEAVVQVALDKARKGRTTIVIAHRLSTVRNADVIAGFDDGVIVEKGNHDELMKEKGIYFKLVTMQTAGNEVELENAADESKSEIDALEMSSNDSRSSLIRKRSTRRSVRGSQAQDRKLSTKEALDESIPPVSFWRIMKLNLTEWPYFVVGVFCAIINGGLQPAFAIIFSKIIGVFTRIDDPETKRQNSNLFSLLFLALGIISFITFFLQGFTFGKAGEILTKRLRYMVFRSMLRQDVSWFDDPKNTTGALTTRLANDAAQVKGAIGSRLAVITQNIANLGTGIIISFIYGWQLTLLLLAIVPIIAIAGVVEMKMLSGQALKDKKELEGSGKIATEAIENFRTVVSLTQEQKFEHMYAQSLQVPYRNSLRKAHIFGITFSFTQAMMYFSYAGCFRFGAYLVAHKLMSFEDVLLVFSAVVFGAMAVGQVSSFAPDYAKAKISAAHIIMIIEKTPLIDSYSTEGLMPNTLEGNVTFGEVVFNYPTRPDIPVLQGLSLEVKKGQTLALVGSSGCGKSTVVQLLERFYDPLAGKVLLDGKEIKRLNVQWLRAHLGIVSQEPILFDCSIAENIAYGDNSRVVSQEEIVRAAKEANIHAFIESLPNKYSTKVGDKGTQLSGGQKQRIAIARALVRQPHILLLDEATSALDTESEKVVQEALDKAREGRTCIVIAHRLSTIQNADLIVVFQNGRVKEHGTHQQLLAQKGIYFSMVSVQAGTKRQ
Text: Without being bound by a particular theory, the P-gp inhibitor could help maintin levels of the P-gp substrate in tumors overexpressing the P-gp transporter.

[15] = Pharmacokinetics in monkey, oral; type: in vivo; conditions: 5 mg/kg oral
Text: Compound BB's oral exposure is high in rat, dog and monkey. Good oral bioavailability and low clearance in rodent and non-rodent animal species results in high oral exposure.

[16] = In vitro toxicology studies
[17] = system: LLC tumor brei; assay: LLC tumor brei model with or without cyclophosphamide (tumor growth, FACS); type: in vivo, mouse
Protocol: In this experiment, treatment began when tumors reached approx. 150 mm^3—around day 12. Caliper and xenogen images were monitored. Treatment groups n=13-15/group. […] Samples for FACs analysis were collected on day 23 post implant. Using FACS, cells were assayed for the level of CD11b and Gr-1.

[18] = Expected oral half-life in humans (from animal data); conditions: human, based on rat, dog, monkey data
[19] = GSH Adduct Formation; type: in vitro ADME
[20] = system: Cyp; assay: Cyp Induction (activity and mRNA); type: in vitro ADME

Structure (SMILES): C[C@H](NC(=O)c1c(N)nn2cccnc12)c1cc2cccc(C#Cc3cnn(C)c3)c2c(=O)n1-c1ccccc1 [Compound BB]
- combination effect (isobologram) [1]: synergistic effect
- ARG1 [2]: suppresses
- VEGF [2]: suppresses
- MDSC expansion after cyclophosphamide treatment ([3]; CT26 colon cancer model): decreased
- monocytic iMCs ([3]; CT26 subcutaneous tumors): decreased
- total luciferase flux [4]: reduced total luciferase flux
- tumor growth [4]: reduced tumor growth
- tumor growth ([5]; Compound BB alone): achieves a reduction in tumor growth
- tumor growth ([5]; co-administration of Compound BB and 5-FU): achieves a further reduction
- oral exposure [6]: high
- inhibition of spleen T cell proliferation by cells isolated from tumors of treated mice ([7]; compared to tumor derived cells from vehicle treated mice): less inhibitory of spleen T cell proliferation
- immune suppressive environment ([7]; ex vivo T-cell proliferation assay): reduces immune suppressive environment
- ex vivo whole blood stimulation of phospho-AKT in monocytes [8]: inhibits
- RANKL driven differentiation of osteoclasts (TRAP positive cells) [9]: prevents RANKL driven differentiation of osteoclasts
- stability in serum (unbound plasma concentration time course) [10]: good stability in serum
- monocytic iMCs [11]: decreased
- M2 macrophage markers VEGF and ARG-1 (RNA) ([12]; 3 mg/kg, with or without PDL-1 antibody): trended towards reduction
- T regulatory and T effector genes (RNA) ([12]; alone): trend in lower T regulatory and T effector genes
- stability in simulated gastric fluid [13]: > 4 h
- P-GP inhibition [14]: appears to be an inhibitor of P-GP
- inhibition at 10 µM ([14]; 10 uM, read-out: PGP Inhibition @ 10 uM): 98%
- pIC50 ([14]; read-out: PGP Inhibition IC50): > 6.00
- oral exposure (plasma concentrations within 24 hours) [15]: high
- toxicity expected from in vitro toxicology studies [16]: very low toxicity
- tumor growth, LLC tumor brei model ([17]; Compound BB 15 mg/kg QD PO, cyclophosphamide 50 mg/kg EOD IP): reduced tumor growth
- CD206 population in LLC tumors (FACS) ([17]; Compound BB PO QD alone or with cyclophosphamide): decrease in the CD206 population
- half-life [18]: 10 to 13 h
- GSH Adduct Formation [19]: Neg
- Cyp Induction @ 10 uM [20]: Neg (activity and mRNA)
